Measured values from patent US7048917B1, “Fat-binding polymers” (Genzyme Corporation, priority 1998, dated 2006).

Tested on: Sprague Dawly rats
Assay: Fat-Binding Evaluation via Paper Staining
Type: in vivo
Details: male rats, chow diet with 15 percent lard; lipase inhibitor (Orlistat) 0.04 percent by weight, no polymer; average of 24 experiments
Method: The model consists of male, Sprague Dawly rats, 160 g, housed individually in wire mesh cages. They were acclimated to the facility for six days, during which time they were fed a chow based diet supplemented with 15 percent lard by weight. Feed and water were provided ad libitum. The animals were then randomly assigned to groups of four and fed test diets for three days. The test diet was also a chow based feed. A lipase inhibitor (Orlistat) was added at 0.04 percent by weight and the polymer was added at 0.30 percent by weight. They were mixed in the feed as a powder followed by the addition of the supplemented fat in the form of lard at 15 percent by weight. During the final 24 hours of the treatment period an 8.5″×11″ sheet of white paper was placed beneath each cage. One inch squares were drawn on the paper creating a grid of 80 squares. When oil in the form of unabsorbed dietary triglyceride seeps from the stool, it stains the paper. This can be readily discerned from urine if the papers were allowed to dry for six hours. The oil stains confer translucence to the paper. The squares that contain these oil stains were counted and expressed as a percentage of total area stained.

In the case of `CCCCCCCCCCC[C@@H](C[C@@H]1OC(=O)[C@H]1CCCCCC)OC(=O)[C@H](CC(C)C)NC=O` [Control 2, Orlistat], the “Percentage of Paper Stained” value is reported as 39 ± 6%.
